The target in assay [1] is T1, human pancreatic lipase (hPL) (Homo sapiens, UniProt P16233).
T1 sequence (P16233 17-465): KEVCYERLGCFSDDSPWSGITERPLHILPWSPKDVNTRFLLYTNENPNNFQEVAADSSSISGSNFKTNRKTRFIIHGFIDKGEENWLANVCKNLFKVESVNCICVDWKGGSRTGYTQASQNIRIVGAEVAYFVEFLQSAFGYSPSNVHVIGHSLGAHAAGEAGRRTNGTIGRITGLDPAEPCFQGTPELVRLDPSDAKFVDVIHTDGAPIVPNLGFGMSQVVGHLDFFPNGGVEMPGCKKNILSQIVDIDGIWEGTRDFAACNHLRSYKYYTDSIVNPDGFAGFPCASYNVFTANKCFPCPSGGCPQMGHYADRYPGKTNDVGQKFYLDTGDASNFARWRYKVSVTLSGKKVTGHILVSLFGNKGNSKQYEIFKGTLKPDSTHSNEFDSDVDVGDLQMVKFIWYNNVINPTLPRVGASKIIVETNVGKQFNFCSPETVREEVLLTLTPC
Briefly: Fluorescence-based hPL inhibition assay on microfluidic SlipChip (DDAO-ol hydrolysis). In kind it is biochemical. The settings on record: for inhibition of hPL-catalyzed DDAO-ol hydrolysis (in words): dose-inhibition curves, Figure 5; for IC50: substrate DDAO-ol 20 μM, hPL 0.25 μg/mL, seven 1:1 gradient concentrations, triplicate, read-out: IC50 against hPL (SlipChip). As for the experimental part:
Fluorescence-based assays were used to determine the residual activities of hPL in the presence of different concentrations of inhibitor, and to calculate the IC50 of the inhibitors. […] Then, the inhibitor at the initial concentration was injected into the P1 fluidic path, followed by injecting DMSO into the P2, P3 and P4 fluidic paths. After sliding the SlipChip as described in Section 2.3 with optimized conditions, seven microchambers containing inhibitors with gradient concentrations were formed. At the same time, the enzyme-substrate system was prepared by mixing 111 μL Tris-HCl (pH 7.4, 25 mM), 80 μL bile salts (0.1 mg/mL, final concentration), 1 μL hPL (dissolved in Tris-HCl buffer, 0.25 μg/mL, final concentration) and 8 μL substrate (DDAO-ol, dissolved in DMSO, 20 μM, final concentration). After pipetting out the residual DMSO in the new path (P5), the prepared enzyme-substrate mixture was immediately injected into the P5 fluidic path. Finally, the top layer was slipped down and to the right, transporting the serial gradient array of inhibitor to the solution of the enzyme-substrate system. […] After 3 min, […] The SlipChip device was then placed under the Olympus IX83 inverted microscope with the same fluorescent condition to obtain the photos of each microchamber. The gray value of the fluorescent photo was analyzed by ImageJ software. The residual activity of hPL was calculated using the following formula: the residual activity (%) = the fluorescence intensity of the test sample/the fluorescence intensity in negative control (DMSO only) × 100%.
All inhibition assays were performed in triplicate (three technical replicates) for each concentration of the inhibitors. IC50 and values were calculated using GraphPad Prism 7.0 (GraphPad Software, Inc., La Jolla, CA, USA).

Assay [2] addresses T1, human pancreatic lipase (hPL). The conditions noted are these: past studies of the authors, cited from earlier work.

Molecules are shown by their SMILES. Read-outs that look alike come from different tables or passages of the source.

On to `CCCCCCCCCCC[C@@H](C[C@@H]1OC(=O)[C@H]1CCCCCC)OC(=O)[C@H](CC(C)C)NC=O` [Orlistat], for which, in assay [1], the “inhibition of hPL-catalyzed DDAO-ol hydrolysis (in words)” value (“inhibition” below) is on record as “strongly inhibited hPL-catalyzed DDAO-ol hydrolysis in a dose-dependent manner”.

On to `O=C(OC[C@H]1O[C@@H](OC(=O)c2cc(O)c(O)c(O)c2)[C@H](OC(=O)c2cc(O)c(O)c(O)c2)[C@@H](OC(=O)c2cc(O)c(O)c(O)c2)[C@@H]1OC(=O)c1cc(O)c(O)c(O)c1)c1cc(O)c(O)c(O)c1` [PGG, 1,2,3,4,6-penta-O-galloyl-β-D-glucopyranose], for which, in assay [1], the “inhibition” value is “strongly inhibited hPL-catalyzed DDAO-ol hydrolysis in a dose-dependent manner” and the 50% inhibitory concentration (IC50) came to 8.22 nM. Further, the IC50 in assay [2] (read-out: IC50, anti-hPL activity) was 7.59 nM.

Consider `COc1ccc(-c2cc(=O)c3c(O)cc(O)c(-c4cc(-c5cc(=O)c6c(O)cc(OC)cc6o5)ccc4OC)c3o2)cc1` [sciadopitysin], for which, in assay [1], the “inhibition” value is listed as “strongly inhibited hPL-catalyzed DDAO-ol hydrolysis in a dose-dependent manner” and the IC50 turned out to be 800 nM. The half-maximal inhibitory concentration (IC50) in assay [2] (read-out: IC50, inhibitory effect on hPL) is 750 nM.

(Values after publication PMC9954273, “Construction and Manipulation of Serial Gradient Dilution Array on a Microfluidic Slipchip for Screening and Characterizing Inhibitors against Human Pancreatic Lipase” (Biosensors, 2023).)
